Laboratory results from US10645928B2, “Pesticidally active polycyclic derivatives with sulfur containing substituents” (Syngenta Participations AG, priority 2014, dated 2020).

How the values were obtained:
[1] = tested on: Spodoptera littoralis (Egyptian Cotton Leaf Worm); test: Example B19: Spodoptera littoralis, compound in agar absorbed by lettuce roots, anti-feedant effect; assay type: in vivo; details: 144 h, test rate of 12.5 ppm, uptake by lettuce roots, Spodoptera eggs, 6 days after infestation, read-out: anti-feeding
Text: (§1) Test compounds were applied by pipette prepared from 10,000 ppm DMSO stock solutions into 24-well plates and mixed with agar. Lettuce seeds were placed onto the agar and the multi well plate was closed by another plate which contained also agar. After 7 days the compound was absorbed by the roots and the lettuce grew into the lid plate. The lettuce leaves were then cut off into the lid plate. Spodoptera eggs were pipetted through a plastic stencil onto a humid gel blotting paper and the lid plate was closed with it. The samples were assessed for anti-feedant effect in comparison to untreated samples 6 days after infestation.

[2] = tested on: Plutella xylostella (Diamond Back Moth); test: Example B13: Plutella xylostella, treated artificial diet, mortality and growth inhibition; assay type: in vivo; details: 120 h, application rate of 200 ppm, L2 larvae, 5 days after infestation, read-out: effect in at least one of the two categories (mortality or growth inhibition)
Experimental: (§2) 24-well microtiter plates with artificial diet were treated with aqueous test solutions prepared from 10,000 ppm DMSO stock solutions by pipetting. After drying, the plates were infested with L2 larvae (10 to 15 per well). The samples were assessed for mortality and growth inhibition in comparison to untreated samples 5 days after infestation.

[3] = tested on: Spodoptera littoralis (Egyptian Cotton Leaf Worm); test: Example B18: Spodoptera littoralis, compound in agar absorbed by lettuce roots, mortality, anti-feedant effect and growth inhibition; assay type: in vivo; details: 144 h, test rate of 12.5 ppm, uptake by lettuce roots, Spodoptera eggs, 6 days after infestation, read-out: effect in at least one of the three categories (mortality, anti-feeding, or growth inhibition)
Text: as §1, with “pipette” for “pipette prepared”, “for mortality,” for “for”, “effect and growth inhibition” for “effect”

[4] = tested on: Spodoptera littoralis (Egyptian Cotton Leaf Worm); test: Example B14: Spodoptera littoralis, sprayed cotton leaf discs, anti-feeding effect; assay type: in vivo; details: foliar, 72 h, application rate of 200 ppm, L1 larvae, 3 days after infestation
Experimental: (§3) Cotton leaf discs were placed onto agar in 24-well microtiter plates and sprayed with aqueous test solutions prepared from 10,000 ppm DMSO stock solutions. After drying the leaf discs were infested with five L1 larvae. The samples were assessed for anti-feeding effect in comparison to untreated samples 3 days after infestation. Control of Spodoptera littoralis by a test sample is given when the anti-feedant effect is higher than the untreated sample.

[5] = tested on: Spodoptera littoralis (Egyptian Cotton Leaf Worm); test: Example B20: Spodoptera littoralis, compound in agar absorbed by lettuce roots, mortality; assay type: in vivo; details: 144 h, test rate of 12.5 ppm, uptake by lettuce roots, Spodoptera eggs, 6 days after infestation
Text: Test compounds were applied by pipette prepared from 10,000 ppm DMSO stock solutions into 24-well plates and mixed with agar. Lettuce seeds were placed onto the agar and the multi well plate was closed by another plate which contained also agar. After 7 days the compound was absorbed by the roots and the lettuce grew into the lid plate. The lettuce leaves were then cut off into the lid plate.
Spodoptera eggs were pipetted through a plastic stencil onto a humid gel blotting paper and the lid plate was closed with it. The samples were assessed for mortality 6 days after infestation.

[6] = tested on: Euschistus heros (Neotropical Brown Stink Bug); test: Example B5: Euschistus heros, sprayed soybean leaves, mortality; assay type: in vivo; details: 120 h, application rate of 200 ppm, N2 nymphs, 5 days after infestation
Experimental: (§4) Soybean leaves on agar in 24-well microtiter plates were sprayed with aqueous test solutions prepared from 10,000 ppm DMSO stock solutions. After drying the leaves were infested with N2 nymphs. The samples were assessed for mortality 5 days after infestation.

[7] = tested on: Frankliniella occidentalis (Western Flower Thrips); test: Example B7: Frankliniella occidentalis, sprayed sunflower leaf discs, mortality; assay type: in vivo; details: foliar, 168 h, application rate of 200 ppm, population of mixed ages, 7 days after infestation
Experimental: Sunflower leaf discs were placed on agar in 24-well microtiter plates and sprayed with aqueous test solutions prepared from 10,000 DMSO stock solutions. After drying the leaf discs were infested with a Frankliniella population of mixed ages. The samples were assessed for mortality 7 days after infestation.

[8] = tested on: Diabrotica balteata (Corn Root Worm); test: Example B3: Diabrotica balteata, sprayed maize sprouts, mortality; assay type: in vivo; details: 96 h, application rate of 200 ppm, L2 larvae, 4 days after infestation
Experimental: (§5) Maize sprouts placed onto an agar layer in 24-well microtiter plates were treated with aqueous test solutions prepared from 10,000 ppm DMSO stock solutions by spraying. After drying, the plates were infested with L2 larvae (6 to 10 per well). The samples were assessed for mortality 4 days after infestation.

[9] = tested on: Diabrotica balteata (Corn Root Worm); test: Example B2: Diabrotica balteata, sprayed maize sprouts, mortality and growth inhibition; assay type: in vivo; details: 96 h, application rate of 200 ppm, L2 larvae, 4 days after infestation, read-out: effect in at least one of the two categories (mortality or growth inhibition)
Experimental: as §5, with “mortality and growth inhibition in comparison to untreated samples” for “mortality”

[10] = tested on: Spodoptera littoralis (Egyptian Cotton Leaf Worm); test: Example B17: Spodoptera littoralis, sprayed cotton leaf discs, mortality, anti-feeding effect and growth inhibition; assay type: in vivo; details: foliar, 72 h, application rate of 200 ppm, L1 larvae, 3 days after infestation, read-out: control (at least one of mortality, anti-feedant effect, growth inhibition)
Experimental: Cotton leaf discs were placed onto agar in 24-well microtiter plates and sprayed with aqueous test solutions prepared from 10,000 ppm DMSO stock solutions. After drying the leaf discs were infested with five L1 larvae. The samples were assessed for mortality, anti-feeding effect, and growth inhibition in comparison to untreated samples 3 days after infestation. Control of Spodoptera littoralis by a test sample is given when at least one of the categories mortality, anti-feedant effect, and growth inhibition is higher than the untreated sample.

[11] = tested on: Euschistus heros (Neotropical Brown Stink Bug); test: Example B6: Euschistus heros, sprayed soybean leaves, mortality and growth inhibition; assay type: in vivo; details: 120 h, application rate of 200 ppm, N2 nymphs, 5 days after infestation, read-out: effect in at least one of the two categories (mortality or growth inhibition)
Experimental: as §4, with “mortality and growth inhibition in comparison to untreated samples” for “mortality”

[12] = tested on: Spodoptera littoralis (Egyptian Cotton Leaf Worm); test: Example B16: Spodoptera littoralis, sprayed cotton leaf discs, mortality; assay type: in vivo; details: foliar, 72 h, application rate of 200 ppm, L1 larvae, 3 days after infestation
Experimental: Cotton leaf discs were placed onto agar in 24-well microtiter plates and sprayed with aqueous test solutions prepared from 10,000 ppm DMSO stock solutions. After drying the leaf discs were infested with five L1 larvae. The samples were assessed for mortality 3 days after infestation.

[13] = tested on: Plutella xylostella (Diamond Back Moth); test: Example B12: Plutella xylostella, treated artificial diet, mortality; assay type: in vivo; details: 120 h, application rate of 200 ppm, L2 larvae, 5 days after infestation
Experimental: 24-well microtiter plates with artificial diet were treated with aqueous test solutions prepared from 10,000 ppm DMSO stock solutions by pipetting. After drying, the plates were infested with L2 larvae (10 to 15 per well). The samples were assessed for mortality 5 days after infestation.

[14] = tested on: Euschistus heros (Neotropical Brown Stink Bug); test: Example B4: Euschistus heros, sprayed soybean leaves, growth inhibition; assay type: in vivo; details: 120 h, application rate of 200 ppm, N2 nymphs, 5 days after infestation
Experimental: as §4, with “growth inhibition in comparison to untreated samples” for “mortality”, “infestation. Control of Euschistus heros by a test sample is given when the growth inhibition is higher than the untreated sample.” for “infestation.”

[15] = tested on: Spodoptera littoralis (Egyptian Cotton Leaf Worm); test: Example B15: Spodoptera littoralis, sprayed cotton leaf discs, growth inhibition; assay type: in vivo; details: foliar, 72 h, application rate of 200 ppm, L1 larvae, 3 days after infestation, read-out: control (growth inhibition)
Experimental: as §3, with “growth inhibition” for “anti-feeding effect”, “growth inhibition” for “anti-feedant effect”

[16] = tested on: Myzus persicae (Green Peach Aphid); test: Example B8: Myzus persicae, sprayed sunflower leaf discs, mortality; assay type: in vivo; details: foliar, 144 h, application rate of 200 ppm, leaf disc spray, aphid population of mixed ages, 6 days after infestation
Experimental: Sunflower leaf discs were placed onto agar in a 24-well microtiter plate and sprayed with aqueous test solutions prepared from 10,000 ppm DMSO stock solutions. After drying, the leaf discs were infested with an aphid population of mixed ages. The samples were assessed for mortality 6 days after infestation.

[17] = tested on: Plutella xylostella (Diamond Back Moth); test: Example B10: Plutella xylostella, treated artificial diet, growth inhibition; assay type: in vivo; details: 120 h, application rate of 200 ppm, L2 larvae, 5 days after infestation
Experimental: as §2, with “for” for “for mortality and”, “infestation. Control of Plutella xylostella by a test sample is given when the growth inhibition is higher than the untreated sample.” for “infestation.”

[18] = tested on: Aedes aegypti (Yellow Fever Mosquito); test: Example B23: Aedes aegypti, dry deposits in 12 well tissue culture plates, control; assay type: in vivo; details: application rate of 200 ppm in ethanol, adult females, after 48 h and/or 24 h
Experimental: Test solutions, at an application rate of 200 ppm in ethanol, were applied to 12 well tissue culture plates. Once the deposits were dry, five, two to five day old adult female Aedes aegypti were added to each well, and sustained with a 10% sucrose solution in a cotton wool plug. Assessment of knockdown was made one hour after introduction, and mortality was assessed at 24 and 48 hours after introduction.

[19] = tested on: Tetranychus urticae (Two-Spotted Spider Mite); test: Example B21: Tetranychus urticae, sprayed bean leaf discs, mortality; assay type: in vivo; details: foliar, 192 h, application rate of 200 ppm, mixed population (mobile stages), 8 days after infestation
Experimental: Bean leaf discs on agar in 24-well microtiter plates were sprayed with aqueous test solutions prepared from 10,000 ppm DMSO stock solutions. After drying the leaf discs were infested with a mite population of mixed ages. The samples were assessed for mortality on mixed population (mobile stages) 8 days after infestation.

[20] = tested on: Myzus persicae (Green Peach Aphid); test: Example B9: Myzus persicae, roots of pea seedlings in test solution, mortality; assay type: in vivo; details: 144 h, test rate of 24 ppm, 6 days
Experimental: Roots of pea seedlings infested with an aphid population of mixed ages were placed directly into aqueous test solutions prepared from 10,000 DMSO stock solutions. The samples were assessed for mortality 6 days after placing seedlings into test solutions.

Compound	pest or weed control at 12.5 ppm [1]	percent effect (mortality or growth inhibition) at 200 ppm [2]	percent effect (mortality, anti-feeding or growth inhibition) at 12.5 ppm [3]	pest or weed control at 200 ppm [4]	mortality at 12.5 ppm [5]	mortality at 200 ppm [6]	mortality at 200 ppm [8]	percent effect (mortality or growth inhibition) at 200 ppm [9]	percent control (mortality, anti-feedant effect or growth inhibition) at 200 ppm [10]	percent effect (mortality or growth inhibition) at 200 ppm [11]	mortality at 200 ppm [12]	mortality at 200 ppm [13]	inhibition at 200 ppm [14]	mortality at 200 ppm [16]	inhibition at 200 ppm [17]	further results
CCS(=O)(=O)c1cc(-c2ccc(Cl)cc2)cnc1-c1cn2cnc(C(F)(F)F)cc2n1 [Compound P5, 2-[5-(4-chlorophenyl)-3-ethylsulfonyl-2-pyridyl]-7-(trifluoromethyl)imidazo [1,2-c]pyrimidine]	≥ 80%	≥ 80%	≥ 80%	≥ 80%	≥ 80%	≥ 80%	≥ 80%	≥ 80%	≥ 80%	≥ 80%	≥ 80%	≥ 80%	≥ 80%			mortality at 200 ppm [7]: ≥ 80%
CCS(=O)(=O)c1cc(C2(C#N)CC2)cnc1-c1cn2cnc(C(F)(F)F)cc2n1 [Compound P8, 1-[5-ethylsulfonyl-6-[7-(trifluoromethyl)imidazo[1,2-c]pyrimidin-2-yl]-3-pyridyl]cyclopropanecarbonitrile]		≥ 80%		≥ 80%		≥ 80%	≥ 80%	≥ 80%	≥ 80%	≥ 80%	≥ 80%	≥ 80%	≥ 80%	≥ 80%	≥ 80%	inhibition at 200 ppm [15]: ≥ 80%
CCS(=O)(=O)c1cc(-c2cc(F)cc(F)c2)cnc1-c1cn2cnc(C(F)(F)F)cc2n1 [Compound P14]	≥ 80%	≥ 80%	≥ 80%	≥ 80%	≥ 80%	≥ 80%	≥ 80%	≥ 80%	≥ 80%	≥ 80%	≥ 80%	≥ 80%		≥ 80%	≥ 80%	pest or weed control at 200 ppm [18]: ≥ 80%; mortality at 200 ppm [19]: ≥ 80%
CCS(=O)(=O)c1cc(CC#N)cnc1-c1cn2cnc(C(F)(F)F)cc2n1 [Compound P30, 2-[5-ethylsulfonyl-6-[7-(trifluoromethyl)imidazo[1,2-c]pyrimidin-2-yl]-3-pyridyl]acetonitrile]		≥ 80%				≥ 80%	≥ 80%	≥ 80%		≥ 80%					≥ 80%	mortality at 24 ppm [20]: ≥ 80%
C=Cc1cnc(-c2cn3cnc(C(F)(F)F)cc3n2)c(S(=O)(=O)CC)c1 [Example H6, 2-(3-ethylsulfonyl-5-vinyl-2-pyridyl)-7-(trifluoromethyl)imidazo[1,2-c]pyrimidine]																melting point: 174 to 176 °C
